Measured values: patent publication US10953012B2, “Heterocyclic compounds for the inhibition of pask” (BioEnergenix LLC, priority 2011, dated 2021)

Biological target: PASK (Homo sapiens (Human), UniProt Q96RG2)
Test: PAS Kinase FRET Assay
Type: biochemical
Settings: TR-FRET assay; read-out: IC50 Kinase Domain
Excerpt: The aim of the FRET assay is to determine the inhibition potential of test compounds on targeted kinase. This assay platform provides a homogenous screening method for measuring kinase activity by quantitating the amount of phospho-substrate in solution following a kinase reaction.
In the presence of kinase and ATP, the Ulight-peptide is phosphorylated and captured by an anti-phospho-substrate antibody, which brings the Eu chelate donor and Ulight acceptor dyes into close proximity. Upon excitation at 340 nm, the Eu chelate transfers its energy to the Ulight dye, resulting in a fluorescent light emission at 665 nm
Titration of kinase at 1 mM ATP was achieved via the following protocol. After making serial three-fold dilutions of PASK (Invitrogen) in reaction buffer across the plate; 5 μl of kinase dilution and 5 μl substrate/ATP mix were added to the wells of the white Optiplate-384 (PerkinElmer). The contents of the plate were and incubated at RT for 1 h. The reaction was stopped by adding 5 μl of stop solution to each test well followed by mixing and incubation at RT for 10 minutes. 5 μl of detection mix (detection antibody diluted in detection buffer) was added; the contents of the plate were mixed and then incubated in the dark for 1 hour at RT. The signal was recorded at TR-FRET mode (665 nm/615 nm). The results were graphed to calculate the EC50.
Titration of ATP at the EC50 concentration of kinase to determine ATP Km, app. was performed using the following method. After making serial dilutions of ATP (Invitrogen), 5 μl of ATP dilution and 5 μl substrate/kinase mix were added to the wells of the white Optiplate-384 (PerkinElmer). The contents of the plate were and incubated at RT for 1 h. The reaction was stopped by adding 5 μl of stop solution to each test well followed by mixing and incubation at RT for 10 minutes. 5 μl of detection mix (detection antibody diluted in detection buffer) was added; the contents of the plate were mixed and then incubated in the dark for 1 hour at RT. The signal was recorded at TR-FRET mode (665 nm/615 nm). The results were graphed to calculate the EC50 as the ATP Km, app.
Compound screening was done via the following method. 10 mM stock solution of test compound in DMSO was prepared by dissolving test compound in DMSO at RT for 1 hour, and then sonicating at 100% output for 8 minutes. If compound is not soluble under this condition, it was diluted to 3 mM. Kinase reaction buffer was prepared containing 10 mM MgCl2, 50 mM HEPES, 1 mM EGTA, 0.01% TWEEN-20, 2 mM DTT. Serial dilutions of the test compounds were prepared at 4×final assay concentrations using Freedom EVO200® dispensing system as follows: 12×10^−5 M, 4×10^−5 M, 1.33×10^−5 M, 4.44×10^−6 M, 1.48×10^−6 M, 4.92×10^−7 M, 1.65×10^−7 M, […], 1.82×10^−8M, 6.09×10^−9, 2.03×10^−9 M. Test compounds (2.5 μl at 4× the final assay concentration) was added to wells using Freedom EVO200® dispensing system. As a positive control, 2.5 μl of positive compound was added to assay wells, and 2.5 μl of DMSO to assay wells as vehicle control. Kinase solution was prepared in reaction buffer at 2×final assay concentration. Kinase solution (5 μl) was added to each well of the assay plate. The substrate and ATP solution was prepared in kinase reaction buffer at 4×final assay concentration. The kinase reaction was started by adding 2.5 μl of substrate+ATP mix solution to each well of the assay plate. The plate is mixed on a plate shaker; then covered and allowed to react for 2 hours in the dark at 25° C. without shaking. The reaction was stopped by adding 5 μl of stop solution to each test well followed by mixing and incubation at RT for 10 minutes in the dark. 5 μl of detection mix (detection antibody diluted in detection buffer) was added; the contents of the plate were mixed and then incubated in the dark for 1 hour at RT. The signal was recorded at TR-FRET mode (665 nm/615 nm).

Chain of PASK (Q96RG2 999-1251): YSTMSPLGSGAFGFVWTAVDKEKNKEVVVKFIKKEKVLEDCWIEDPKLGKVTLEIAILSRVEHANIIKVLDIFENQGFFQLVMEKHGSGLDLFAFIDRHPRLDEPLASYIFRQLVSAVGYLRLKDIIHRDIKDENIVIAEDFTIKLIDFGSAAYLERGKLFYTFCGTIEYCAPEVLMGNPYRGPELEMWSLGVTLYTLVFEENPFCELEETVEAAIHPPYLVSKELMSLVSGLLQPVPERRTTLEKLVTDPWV

Row | Compound | IC50 [µM]
1 | COc1ccc(-c2cnn3c(=O)cc(-c4ccc5c(c4)OCCO5)[nH]c23)cc1 [Example 82, 5-(2,3-Dihydrobenzo[b][1,4]dioxin-6-yl)-3-(4-methoxyphenyl)pyrazolo[1,5-a]pyrimidin-7(4H)-one] | ≤ 10
2 | O=c1cc(-c2ccc3c(c2)OCCO3)[nH]c2c(-c3ccc(F)cc3)cnn12 [Example 86, 5-(2,3-Dihydrobenzo[b][1,4]dioxin-6-yl)-3-(4-fluorophenyl)pyrazolo[1,5-a]pyrimidin-7(4H)-one] | ≤ 10
3 | O=c1cc(-c2ccccc2)[nH]c2c(-c3ccc(N4CCCCC4)nc3)cnn12 [Example 88, 5-Phenyl-3-(6-(piperidin-1-yl)pyridin-3-yl)pyrazolo[1,5-a]pyrimidin-7(4H)-one] | ≥ 10
4 | O=c1cc(-c2ccc3c(c2)OCCO3)[nH]c2c(-c3cccc(Cl)c3)cnn12 [Example 90, 3-(3-Chlorophenyl)-5-(2,3-dihydrobenzo[b][1,4]dioxin-6-yl)pyrazolo[1,5-a]pyrimidin-7(4H)-one] | ≤ 10
5 | O=c1cc(-c2ccc3c(c2)OCCO3)[nH]c2c(-c3ccc(Br)cc3)cnn12 [Example 104, 3-(4-Bromophenyl)-5-(2,3-dihydrobenzo[b][1,4]dioxin-6-yl)pyrazolo[1,5-a]pyrimidin-7(4H)-one] | ≤ 10
6 | O=c1cc(-c2ccccc2)[nH]c2c(-c3ccc(O)nc3)cnn12 [Example 105, 3-(6-Hydroxypyridin-3-yl)-5-phenylpyrazolo[1,5-a]pyrimidin-7(4H)-one] | ≤ 10
7 | COc1ccc(-c2cnn3c(=O)cc(-c4ccccc4)[nH]c23)cn1 [Example 112, 3-(6-Methoxypyridin-3-yl)-5-phenylpyrazolo[1,5-a]pyrimidin-7(4H)-one] | ≤ 10
8 | O=C(O)c1cnn2c(=O)cc(-c3ccc4c(c3)OCCO4)[nH]c12 [Example 115, 5-(2,3-Dihydrobenzo[b][1,4]dioxin-6-yl)-7-oxo-4,7-dihydropyrazolo[1,5-a]pyrimidine-3-carboxylic acid] | ≤ 10
9 | O=c1cc(-c2ccc3c(c2)OCCO3)[nH]c2c(-c3ccc(N4CCOCC4)nc3)cnn12 [Example 118, 5-(2,3-Dihydrobenzo[b][1,4]dioxin-6-yl)-3-(6-morpholinopyridin-3-yl)pyrazolo[1,5-a]pyrimidin-7(4H)-one] | ≤ 10
10 | O=c1cc(-c2ccc(Cl)cc2Cl)[nH]c2c(-c3ccccn3)cnn12 [Example 124, 5-(2,4-Dichlorophenyl)-3-(pyridin-2-yl)pyrazolo[1,5-a]pyrimidin-7(4H)-one] | ≤ 10
11 | O=c1cc(-c2ccc(Cl)cc2)[nH]c2c(Cc3ccccc3)cnn12 [Example 132, 3-benzyl-5-(4-chlorophenyl)pyrazolo[1,5-a]pyrimidin-7(411)-one] | ≤ 10

Next, values leading:

Row | IC50 [µM] | Compound
12 | ≤ 10 | Cc1nn2c(=O)cc(-c3ccc(O)cc3)[nH]c2c1-c1ccccc1 [Example 80, 5-(4-Hydroxyphenyl)-2-methyl-3-phenylpyrazolo[1,5-a]pyrimidin-7(4H)-one]
13 | ≤ 10 | Cc1nn2c(=O)cc(-c3ccc4ncccc4c3)[nH]c2c1-c1ccc(F)cc1 [Example 83, 3-(4-Fluorophenyl)-2-methyl-5-(quinolin-6-yl)pyrazolo[1,5-a]pyrimidin-7(4H)-one]
14 | ≤ 10 | COc1ccc(-c2c(C)nn3c(=O)cc(-c4ccc5ncccc5c4)[nH]c23)cc1 [Example 84, 3-(4-Methoxyphenyl)-2-methyl-5-(quinolin-6-yl)pyrazolo[1,5-a]pyrimidin-7(4H)-one]
15 | ≤ 10 | COc1ccc(-c2c(C)nn3c(=O)cc(-c4ccc5c(c4)OCCO5)[nH]c23)cc1 [Example 85, 5-(2,3-Dihydrobenzo[b][1,4]dioxin-6-yl)-3-(4-methoxyphenyl)-2-methylpyrazolo[1,5-a]pyrimidin-7(4H)-one]
16 | ≤ 10 | Cc1nn2c(=O)cc(-c3ccc4[nH]ccc4c3)[nH]c2c1-c1ccccc1 [Example 87, 5-(1H-Indol-5-yl)-2-methyl-3-phenylpyrazolo[1,5-a]pyrimidin-7(4H)-one]
